Source: patent publication US20240376100A1 (Redona Therapeutics, Inc., priority 2021, published 2024)
pIC50: −log10 of the molar value.

target: PAPD5 enzyme (Homo sapiens, UniProt Q8NDF8); assay: PAPD5 assay (AMP incorporation onto 3'-terminus of RNA substrate, fluorescence quench); assay type: biochemical; settings: PAPD5 protein 0.3 nM, ATP 50 μM, 30 minutes preincubation, room temperature; read-out: Potency PAPD5 IC50
Procedure, shortened: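 Enzyme at 0.3 nM with 50 μM ATP, pH 7.3 HEPES buffer, preincubated with compound 30 minutes at room temperature; 5 nM 5′-fluorescein RNA substrate and 20 nM TAMRA quench probe then added. Initial rates from kinetic fluorescein decrease over ~90 minutes; IC50 by four-parameter fit.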

PAPD5 enzyme, sequence (Q8NDF8 whole entry): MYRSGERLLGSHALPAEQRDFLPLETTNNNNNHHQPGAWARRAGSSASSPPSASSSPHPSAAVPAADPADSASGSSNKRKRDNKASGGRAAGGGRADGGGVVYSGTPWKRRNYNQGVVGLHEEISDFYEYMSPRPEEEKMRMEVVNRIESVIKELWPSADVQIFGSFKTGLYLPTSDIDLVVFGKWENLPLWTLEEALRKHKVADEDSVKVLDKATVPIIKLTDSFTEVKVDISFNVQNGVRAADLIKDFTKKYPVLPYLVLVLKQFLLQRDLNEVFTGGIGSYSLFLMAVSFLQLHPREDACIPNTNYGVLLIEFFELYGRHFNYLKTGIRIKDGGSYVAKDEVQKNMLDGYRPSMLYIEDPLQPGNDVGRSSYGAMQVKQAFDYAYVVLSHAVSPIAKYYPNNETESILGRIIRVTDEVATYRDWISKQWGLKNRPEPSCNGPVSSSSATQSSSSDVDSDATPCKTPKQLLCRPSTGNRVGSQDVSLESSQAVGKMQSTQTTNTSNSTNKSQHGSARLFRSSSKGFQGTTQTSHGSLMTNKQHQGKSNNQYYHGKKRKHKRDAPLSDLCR

Row | pIC50 | Compound
1 | ≥ 6.00 | Nc1ccc(-n2cc(C(=O)O)c(=O)c3cc(F)c(N4Cc5ccccc5C4)cc32)cn1 [Example 195, 1-(6-aminopyridin-3-yl)-6-fluoro-7-(isoindolin-2-yl)-4-oxo-1,4-dihydroquinoline-3-carboxylic acid]
2 | ≥ 6.00 | Cc1cc(N)ncc1-n1cc(C(=O)O)c(=O)c2cc(Cl)c(N3CCc4cnccc4C3)nc21 [Example 197, 1-(6-amino-4-methylpyridin-3-yl)-6-chloro-7-(3,4-dihydro-2,6-naphthyridin-2(1H)-yl)-4-oxo-1,4-dihydro-1,8-naphthyridine-3-carboxylic acid]
3 | ≥ 6.00 | Cc1cc(N)ncc1-n1cc(C(=O)O)c(=O)c2cc(Cl)c(N3CCc4ncncc4C3)nc21 [Example 198, 1-(6-amino-4-methylpyridin-3-yl)-6-chloro-7-(7,8-dihydropyrido[4,3-d]pyrimidin-6(5H)-yl)-4-oxo-1,4-dihydro-1,8-naphthyridine-3-carboxylic acid]
4 | ≥ 6.00 | CCCc1cc(N)ncc1-n1cc(C(=O)O)c(=O)c2cc(Cl)c(N3Cc4cccnc4C3)cc21 [Example 199, 1-(6-amino-4-propylpyridin-3-yl)-6-chloro-7-(5,7-dihydro-6H-pyrrolo[3,4-b]pyridin-6-yl)-4-oxo-1,4-dihydroquinoline-3-carboxylic acid]
5 | ≥ 6.00 | Cc1cc(NS(C)(=O)=O)ncc1-n1cc(C(=O)O)c(=O)c2cc(Cl)c(N3Cc4cccnc4C3)nc21 [Example 200, 6-chloro-7-(5,7-dihydro-6H-pyrrolo[3,4-b]pyridin-6-yl)-1-(4-methyl-6-(methylsulfonamido)pyridin-3-yl)-4-oxo-1,4-dihydro-1,8-naphthyridine-3-carboxylic acid]
6 | ≥ 6.00 | O=C(O)c1cn(-c2cnc(N3CCC3)cn2)c2cc(N3Cc4cccnc4C3)c(Cl)cc2c1=O [Example 201, 1-(5-(azetidin-1-yl)pyrazin-2-yl)-6-chloro-7-(5,7-dihydro-6H-pyrrolo[3,4-b]pyridin-6-yl)-4-oxo-1,4-dihydroquinoline-3-carboxylic acid]

Row | Compound | pIC50
7 | Cc1cc(NC(=O)OC(C)(C)C)ncc1-n1cc(C(=O)O)c(=O)c2cc(Cl)c(N3CCc4cnccc4C3)nc21 [Example 196, 1-(6-((tert-butoxycarbonyl)amino)-4-methylpyridin-3-yl)-6-chloro-7-(3,4-dihydro-2,6-naphthyridin-2(1H)-yl)-4-oxo-1,4-dihydro-1,8-naphthyridine-3-carboxylic acid] | ≥ 6.00
